Results: patent US8426345B2, “Method of drug design” (Alchemia Limited, priority 2005, dated 2013)

Molecular target: T1, Human SST5 somatostatin receptor (Homo sapiens, UniProt P35346)
T1 construct: expressed in transfected cells; host or cells: HEK-293 EBNA cells (membranes)
Assay: Filter plate radio-ligand binding assay for SST5 receptor ([125I]SST-14 displacement)
Settings: for % SST5 radio-ligand binding displaced at conc 0.25: conc 0.25 μM; for % SST5 radio-ligand binding displaced at conc 0.25 / % SST5 radio-ligand binding displaced at conc 1.0: 3P library; for % SST5 radio-ligand binding displaced at conc 1.0: conc 1.0 μM; for % SST5 radio-ligand binding displaced at conc 50: compound conc 50 μM; for % SST5 radio-ligand binding displaced at conc 50 / % SST5 radio-ligand binding displaced at conc 250 / % SST5 radio-ligand binding displaced at conc 500: 2P library; for % SST5 radio-ligand binding displaced at conc 250: compound conc 250 μM; for % SST5 radio-ligand binding displaced at conc 500: compound conc 500 μM

T1 sequence (P35346 whole entry): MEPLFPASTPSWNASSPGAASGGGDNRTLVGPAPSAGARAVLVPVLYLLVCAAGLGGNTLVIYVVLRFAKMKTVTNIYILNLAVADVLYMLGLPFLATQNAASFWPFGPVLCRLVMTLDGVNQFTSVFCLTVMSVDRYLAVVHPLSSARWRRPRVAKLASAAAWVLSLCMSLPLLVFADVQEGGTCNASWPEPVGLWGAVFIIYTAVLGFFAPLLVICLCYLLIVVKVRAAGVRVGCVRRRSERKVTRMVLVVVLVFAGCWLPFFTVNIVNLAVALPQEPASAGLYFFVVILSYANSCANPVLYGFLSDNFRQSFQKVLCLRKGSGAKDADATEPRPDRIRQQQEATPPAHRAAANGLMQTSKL

COC[C@H]1OC(OCc2ccc3ccccc3c2)[C@H](NC(=O)CCN)[C@@H](OCc2ccc(Cl)cc2)[C@@H]1O (single isomer, unassigned) [Compound 89]
% SST5 radio-ligand binding displaced at conc 0.25: − (% SST5 radio-ligand binding displaced at cone (μM) −<40%)
% SST5 radio-ligand binding displaced at conc 1.0: − (% SST5 radio-ligand binding displaced at cone (μM) −<40%)

COC[C@H]1OC(OCc2ccc3ccccc3c2)[C@H](NC(=O)CCN)[C@@H](OCc2ccc(Cl)cc2)[C@@H]1O (single isomer, unassigned) [Compound 90]
% SST5 radio-ligand binding displaced at conc 0.25: + (% SST5 radio-ligand binding displaced at cone (μM) 60>+>40%)
% SST5 radio-ligand binding displaced at conc 1.0: ++ (% SST5 radio-ligand binding displaced at conc (μM) >60%)

COC[C@H]1OC(OCc2ccc3ccccc3c2)[C@H](NC(=O)CCN)[C@@H](OCc2ccc(-c3ccccc3)cc2)[C@@H]1O (single isomer, unassigned) [Compound 91]
% SST5 radio-ligand binding displaced at conc 0.25: − (% SST5 radio-ligand binding displaced at cone (μM) −<40%)
% SST5 radio-ligand binding displaced at conc 1.0: − (% SST5 radio-ligand binding displaced at cone (μM) −<40%)

COC[C@H]1OC(OCc2ccc3ccccc3c2)[C@H](NC(=O)CCN)[C@@H](OCc2ccc3ccccc3c2)[C@@H]1O (single isomer, unassigned) [Compound 92]
% SST5 radio-ligand binding displaced at conc 0.25: − (% SST5 radio-ligand binding displaced at cone (μM) −<40%)
% SST5 radio-ligand binding displaced at conc 1.0: + (% SST5 radio-ligand binding displaced at cone (μM) 60>+>40%)

COC1C(O)C(COCc2ccc(Cl)cc2)OC(OCc2ccc3ccccc3c2)C1NC(=O)CCN (single isomer, unassigned) [Compound 94]
% SST5 radio-ligand binding displaced at conc 0.25: − (% SST5 radio-ligand binding displaced at cone (μM) −<40%)
% SST5 radio-ligand binding displaced at conc 1.0: − (% SST5 radio-ligand binding displaced at cone (μM) −<40%)

CO[C@H]1[C@H](O)[C@@H](COCc2ccc(Cl)cc2)OC(OCc2ccc3ccccc3c2)[C@@H]1NC(=O)CCN (single isomer, unassigned) [Compound 95]
% SST5 radio-ligand binding displaced at conc 0.25: − (% SST5 radio-ligand binding displaced at cone (μM) −<40%)
% SST5 radio-ligand binding displaced at conc 1.0: − (% SST5 radio-ligand binding displaced at cone (μM) −<40%)

CO[C@H]1[C@H](O)[C@@H](COCc2ccc(-c3ccccc3)cc2)OC(OCc2ccc3ccccc3c2)[C@@H]1NC(=O)CCN (single isomer, unassigned) [Compound 96]
% SST5 radio-ligand binding displaced at conc 0.25: − (% SST5 radio-ligand binding displaced at cone (μM) −<40%)
% SST5 radio-ligand binding displaced at conc 1.0: − (% SST5 radio-ligand binding displaced at cone (μM) −<40%)

COC[C@H]1OC(OCc2ccc(Cl)cc2)[C@H](NC(=O)CN)[C@@H](OCc2ccccc2)[C@@H]1O (single isomer, unassigned) [Compound 168]
% SST5 radio-ligand binding displaced at conc 0.25: − (% SST5 radio-ligand binding displaced at cone (μM) −<40%)
% SST5 radio-ligand binding displaced at conc 1.0: − (% SST5 radio-ligand binding displaced at cone (μM) −<40%)

COC[C@H]1OC(OCc2ccc(Cl)cc2)[C@H](NC(=O)CN)[C@@H](OCc2ccccc2)[C@@H]1O (single isomer, unassigned) [Compound 169]
% SST5 radio-ligand binding displaced at conc 0.25: − (% SST5 radio-ligand binding displaced at cone (μM) −<40%)
% SST5 radio-ligand binding displaced at conc 1.0: − (% SST5 radio-ligand binding displaced at cone (μM) −<40%)

COC[C@H]1OC(OCc2ccc(Cl)cc2)[C@H](NC(=O)CN)[C@@H](OCc2ccc(Cl)cc2)[C@@H]1O (single isomer, unassigned) [Compound 170]
% SST5 radio-ligand binding displaced at conc 0.25: − (% SST5 radio-ligand binding displaced at cone (μM) −<40%)
% SST5 radio-ligand binding displaced at conc 1.0: − (% SST5 radio-ligand binding displaced at cone (μM) −<40%)

COC[C@H]1OC(OCc2ccc(Cl)cc2)[C@H](NC(=O)CN)[C@@H](OCc2ccc(Cl)cc2)[C@@H]1O (single isomer, unassigned) [Compound 171]
% SST5 radio-ligand binding displaced at conc 0.25: − (% SST5 radio-ligand binding displaced at cone (μM) −<40%)
% SST5 radio-ligand binding displaced at conc 1.0: − (% SST5 radio-ligand binding displaced at cone (μM) −<40%)

COC[C@H]1OC(OCc2ccc(Cl)cc2)[C@H](NC(=O)CN)[C@@H](OCc2ccc(-c3ccccc3)cc2)[C@@H]1O (single isomer, unassigned) [Compound 172]
% SST5 radio-ligand binding displaced at conc 0.25: − (% SST5 radio-ligand binding displaced at cone (μM) −<40%)
% SST5 radio-ligand binding displaced at conc 1.0: − (% SST5 radio-ligand binding displaced at cone (μM) −<40%)

COC[C@H]1O[C@H](OCc2ccc3ccccc3c2)[C@H](NC(=O)CCN)[C@@H](OC)[C@@H]1O [Compound 5]
% SST5 radio-ligand binding displaced at conc 50: − (% SST5 radio-ligand binding displaced at cone (μM) −<40%)
% SST5 radio-ligand binding displaced at conc 250: + (% SST5 radio-ligand binding displaced at cone (μM) 60>+>40%)
% SST5 radio-ligand binding displaced at conc 500: ++ (% SST5 radio-ligand binding displaced at conc (μM) >60%)

COC[C@H]1O[C@H](OCc2ccc3ccccc3c2)[C@H](NC(=O)CCCN)[C@@H](OC)[C@@H]1O [Compound 6]
% SST5 radio-ligand binding displaced at conc 50: − (% SST5 radio-ligand binding displaced at cone (μM) −<40%)
% SST5 radio-ligand binding displaced at conc 250: + (% SST5 radio-ligand binding displaced at cone (μM) 60>+>40%)
% SST5 radio-ligand binding displaced at conc 500: ++ (% SST5 radio-ligand binding displaced at conc (μM) >60%)

CO[C@H]1[C@H](O)[C@@H](COCc2ccc(Cl)cc2)O[C@@H](SC)[C@@H]1NC(=O)CN [Compound 7]
% SST5 radio-ligand binding displaced at conc 50: − (% SST5 radio-ligand binding displaced at cone (μM) −<40%)
% SST5 radio-ligand binding displaced at conc 250: − (% SST5 radio-ligand binding displaced at cone (μM) −<40%)
% SST5 radio-ligand binding displaced at conc 500: − (% SST5 radio-ligand binding displaced at cone (μM) −<40%)

CO[C@H]1[C@H](O)[C@@H](COCc2ccc3ccccc3c2)O[C@@H](SC)[C@@H]1NC(=O)CN [Compound 8]
% SST5 radio-ligand binding displaced at conc 50: − (% SST5 radio-ligand binding displaced at cone (μM) −<40%)
% SST5 radio-ligand binding displaced at conc 250: + (% SST5 radio-ligand binding displaced at cone (μM) 60>+>40%)
% SST5 radio-ligand binding displaced at conc 500: ++ (% SST5 radio-ligand binding displaced at conc (μM) >60%)

COC[C@H]1O[C@@H](SC)[C@H](NC(=O)CN)[C@@H](OCc2ccc(Cl)cc2)[C@@H]1O [Compound 9]
% SST5 radio-ligand binding displaced at conc 50: − (% SST5 radio-ligand binding displaced at cone (μM) −<40%)
% SST5 radio-ligand binding displaced at conc 250: − (% SST5 radio-ligand binding displaced at cone (μM) −<40%)
% SST5 radio-ligand binding displaced at conc 500: − (% SST5 radio-ligand binding displaced at cone (μM) −<40%)

COC[C@H]1O[C@@H](SC)[C@H](NC(=O)CN)[C@@H](OCc2ccc3ccccc3c2)[C@@H]1O [Compound 10]
% SST5 radio-ligand binding displaced at conc 50: − (% SST5 radio-ligand binding displaced at cone (μM) −<40%)
% SST5 radio-ligand binding displaced at conc 250: − (% SST5 radio-ligand binding displaced at cone (μM) −<40%)
% SST5 radio-ligand binding displaced at conc 500: − (% SST5 radio-ligand binding displaced at cone (μM) −<40%)

COC[C@H]1O[C@H](OCc2ccc(Cl)cc2)[C@H](NC(=O)CN)[C@@H](OC)[C@@H]1O [Compound 11]
% SST5 radio-ligand binding displaced at conc 50: − (% SST5 radio-ligand binding displaced at cone (μM) −<40%)
% SST5 radio-ligand binding displaced at conc 250: − (% SST5 radio-ligand binding displaced at cone (μM) −<40%)
% SST5 radio-ligand binding displaced at conc 500: − (% SST5 radio-ligand binding displaced at cone (μM) −<40%)

COC[C@H]1O[C@H](OCc2ccc3ccccc3c2)[C@H](NC(=O)CN)[C@@H](OC)[C@@H]1O [Compound 12]
% SST5 radio-ligand binding displaced at conc 50: − (% SST5 radio-ligand binding displaced at cone (μM) −<40%)
% SST5 radio-ligand binding displaced at conc 250: − (% SST5 radio-ligand binding displaced at cone (μM) −<40%)
% SST5 radio-ligand binding displaced at conc 500: − (% SST5 radio-ligand binding displaced at cone (μM) −<40%)

COC[C@H]1O[C@@H](OCc2ccc(Cl)cc2)[C@H](NC(=O)CN)[C@@H](OC)[C@@H]1O [Compound 13]
% SST5 radio-ligand binding displaced at conc 50: − (% SST5 radio-ligand binding displaced at cone (μM) −<40%)
% SST5 radio-ligand binding displaced at conc 250: − (% SST5 radio-ligand binding displaced at cone (μM) −<40%)
% SST5 radio-ligand binding displaced at conc 500: − (% SST5 radio-ligand binding displaced at cone (μM) −<40%)

COC[C@H]1O[C@@H](OCc2ccc3ccccc3c2)[C@H](NC(=O)CN)[C@@H](OC)[C@@H]1O [Compound 14]
% SST5 radio-ligand binding displaced at conc 50: − (% SST5 radio-ligand binding displaced at cone (μM) −<40%)
% SST5 radio-ligand binding displaced at conc 250: − (% SST5 radio-ligand binding displaced at cone (μM) −<40%)
% SST5 radio-ligand binding displaced at conc 500: − (% SST5 radio-ligand binding displaced at cone (μM) −<40%)

CO[C@H]1[C@H](O)[C@@H](COCc2ccc(Cl)cc2)O[C@@H](SC)[C@@H]1NC(=O)CCN [Compound 15]
% SST5 radio-ligand binding displaced at conc 50: − (% SST5 radio-ligand binding displaced at cone (μM) −<40%)
% SST5 radio-ligand binding displaced at conc 250: − (% SST5 radio-ligand binding displaced at cone (μM) −<40%)
% SST5 radio-ligand binding displaced at conc 500: − (% SST5 radio-ligand binding displaced at cone (μM) −<40%)

CO[C@H]1[C@H](O)[C@@H](COCc2ccc3ccccc3c2)O[C@@H](SC)[C@@H]1NC(=O)CCN [Compound 16]
% SST5 radio-ligand binding displaced at conc 50: − (% SST5 radio-ligand binding displaced at cone (μM) −<40%)
% SST5 radio-ligand binding displaced at conc 250: − (% SST5 radio-ligand binding displaced at cone (μM) −<40%)
% SST5 radio-ligand binding displaced at conc 500: + (% SST5 radio-ligand binding displaced at cone (μM) 60>+>40%)
